What was measured:
Assay type in all cases: biochemical
Settings in all cases: 1 μM inhibitor concentration
TTK = TTK (Homo sapiens (Human), UniProt P33981); experiment: TTK kinase selectivity assay
Description: TTK (5-20 mU diluted in 50 mM Tris pH 7.5, 0.1 mM EGTA, 0.1% 0-mercaptoethanol, 1 mg/ml BSA) is assayed against […] in a final volume of […] containing 50 mM Tris pH 7.5, 0.1 mM EGTA, 0.3 mM […], 10 mM magnesium acetate and 0.02 mM [33P-γ-ATP] (50-1000 cpm/pmole) and incubated for 30 min at room temperature. Assays are stopped by addition of 5 μl of 0.5 M (3%) orthophosphoric acid and then harvested onto P81 Unifilter plates with a wash buffer of 50 mM orthophosphoric acid.

MARK3 = MARK3 (Homo sapiens (Human), UniProt P27448); experiment: MARK3 kinase selectivity assay
Description: MARK3 (5-20 mU diluted in 50 mM Tris pH 7.5, 0.1 mM EGTA, 0.1% b-mercaptoethanol, 1 mg/ml BSA) is assayed against CHKtide substrate ([…]) in a final volume of 25.5 μl containing 50 mM Tris pH 7.5, 0.05% b-mercaptoethanol, 300 μM substrate peptide, 10 mM magnesium acetate and 0.005 mM [33P-g-ATP](50-1000 cpm/pmole) and incubated for 30 min at room temperature. Assays are stopped by addition of 5 μl of 0.5 M (3%) orthophosphoric acid and then harvested onto P81 Unifilter plates with a wash buffer of 50 mM orthophosphoric acid.

RSK1 = RSK1 (Homo sapiens (Human), UniProt Q15418); experiment: RSK1 kinase selectivity assay
Description: MAPKAP-K1a (5-20 mU diluted in 20 mM MOPS pH 7.5, 1 mM EDTA, 0.01% Brij35, 5% glycerol, 0.1% b-mercaptoethanol, 1 mg/ml BSA) is assayed against […] in a final volume of 25.5 μl containing 50 mM Na-b-glycerophosphate pH 7.5, 0.5 mM EDTA, 30 μM substrate peptide, 10 mM magnesium acetate and 0.05 mM [33P-g-ATP] (50-1000 cpm/pmole) and incubated for 40 min at room temperature. Assays are stopped by addition of 5 μl of 0.5 M (3%) orthophosphoric acid and then harvested onto P81 Unifilter plates with a wash buffer of 50 mM orthophosphoric acid.

NEK6 = NEK6 (Homo sapiens (Human), UniProt Q9HC98); experiment: NEK6 kinase selectivity assay
Description: NEK6 (5-20 mU diluted in 50 mM Tris (pH 7.5), 0.1 mM EGTA, 1 mg/ml BSA, 0.1%, b-Mercaptoethanol) is assayed against NEK6 peptide ([…]) in a final volume of 25.5 μl containing 50 mM Tris (pH 7.5), 0.1 mM EGTA, 0.01% Brij, 0.1%, b-Mercaptoethanol, NEK6 peptide (0.3 mM), 10 mM magnesium acetate and 0.05 mM [33P-g-ATP](500-1000 cpm/pmole) and incubated for 30 min at room temperature. Assays are stopped by addition of 5 μl of 0.5 M (3%) orthophosphoric acid and then harvested onto P81 Unifilter plates with a wash buffer of 50 mM orthophosphoric acid.

IKKe = IKKe (Homo sapiens (Human), UniProt Q14164); experiment: IKKe kinase selectivity assay
Description: 5-20 mU of IKKepsilon (DU14231)(diluted in 50 mM Tris (pH 7.5), 0.1 mM EGTA, 1 mg/ml BSA) is assayed against MBP in a final volume of 25.5 μl containing 50 mM Tris (pH 7.5), 0.1 mM EGTA, 0.33 mg/ml MBP, 10 mM magnesium acetate and 0.05 mM [33P-g-ATP](500-1000 cpm/pmole) and incubated for 30 mins at room temperature. Assays are stopped by addition of 5 μl of 0.5M (3%) orthophosphoric acid. Assays are harvested onto P81 Unifilter plates using a wash buffer of 50 mM orthophosphoric acid.

PKCa = PKCa (Homo sapiens (Human), UniProt P17252); experiment: PKCa kinase selectivity assay
Description: PKCa (5-20 mU diluted in 20 mM Hepes pH 7.4, 0.03% Triton X-100) is assayed against Histone H1 in the presence of PtdSerine and DAG (0.1 mg/ml. and 10 μg/ml) and 0.1 mM CaCl2. The assay is carried out in a final volume of 25.5 μl containing 20 mM Hepes pH 7.4, 0.03% Triton X-100, 0.1 mg/ml Histone H1, 10 mM magnesium acetate and 0.02 mM[33P-g-ATP] (50-1000 cpm/pmole) and incubated for 30 min at room temperature. Assays are stopped by addition of 5 μl of 0.5 M (3%) orthophosphoric acid and then harvested onto P81 Unifilter plates with a wash buffer of 50 mM orthophosphoric acid.
PtdSer/DAG preparation:—PtdSer stock=10 mg/ml in MeOH/Chloroform (1:2). Dry down required amount. Resuspend in appropriate volume of 10 mM Hepes pH 7.4. Vortex and briefly sonicate. (2×10-15 seconds at 10-15 seconds apart). DAG stock=10 mg/ml in MeOH/chloroform (1:2). Dry down required amount. Add sonicated PtdSer solution. Vortex and sonicate.

AuroraB = AuroraB (Homo sapiens (Human), UniProt Q96GD4); experiment: AuroraB kinase selectivity assay
Description: Aurora B (5-20 mU diluted in 50 mM Tris pH 7.5, 0.1 mM EGTA, 0.1% b-mercaptoethanol, 1 mg/ml BSA) is assayed against a substrate peptide ([…]) in a final volume of 25.5 μl containing 50 mM Tris pH 7.5, 0.05% b-mercaptoethanol, 300 μM substrate peptide, 10 mM magnesium acetate and 0.02 mM [33P-g-ATP](50-1000 cpm/pmole) and incubated for 30 min at room temperature. Assays are stopped by addition of 5 μl of 0.5 M (3%) orthophosphoric acid and then harvested onto P81 Unifilter plates with a wash buffer of 50 mM orthophosphoric acid.

SGK1 = SGK1 (Homo sapiens (Human), UniProt O00141); experiment: SGK1 kinase selectivity assay
Description: SGK (5-20 mU diluted in 20 mM MOPS pH 7.5, 1 mM EDTA, 0.01% Brij35, 5% glycerol, 0.1% b-mercaptoethanol, 1 mg/ml BSA) is assayed against a modified Crosstide peptide […] in a final volume of 25.5 μl containing 8 mM MOPS pH 7.0, 0.2 mM EDTA, 30 μM substrate peptide, 10 mM magnesium acetate and 0.02 mM [33P-g-ATP] (50-1000 cpm/pmole) and incubated for 30 min at room temperature. Assays are stopped by addition of 5 μl of 0.5 M (3%) orthophosphoric acid and then harvested onto P81 Unifilter plates with a wash buffer of 50 mM orthophosphoric acid.

AuroraB, sequence (Q96GD4 whole entry): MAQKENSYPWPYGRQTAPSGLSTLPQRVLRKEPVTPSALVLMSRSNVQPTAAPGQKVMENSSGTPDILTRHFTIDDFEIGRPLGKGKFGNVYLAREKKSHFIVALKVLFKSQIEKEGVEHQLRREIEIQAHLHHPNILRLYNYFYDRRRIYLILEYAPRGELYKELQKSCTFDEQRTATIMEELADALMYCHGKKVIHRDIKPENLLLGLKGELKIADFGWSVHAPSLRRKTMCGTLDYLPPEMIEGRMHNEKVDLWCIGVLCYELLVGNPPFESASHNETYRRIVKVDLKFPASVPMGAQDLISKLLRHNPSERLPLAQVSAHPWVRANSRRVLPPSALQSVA
NEK6, sequence (Q9HC98 whole entry, species assumed): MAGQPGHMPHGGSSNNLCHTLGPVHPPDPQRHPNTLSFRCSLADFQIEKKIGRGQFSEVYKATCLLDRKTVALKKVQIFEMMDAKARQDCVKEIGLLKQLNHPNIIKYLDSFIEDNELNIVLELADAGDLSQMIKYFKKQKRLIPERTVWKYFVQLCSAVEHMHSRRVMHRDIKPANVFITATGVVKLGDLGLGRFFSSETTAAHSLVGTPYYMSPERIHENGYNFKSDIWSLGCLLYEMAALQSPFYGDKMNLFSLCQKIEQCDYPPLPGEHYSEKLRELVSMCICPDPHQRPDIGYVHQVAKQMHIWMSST
RSK1, sequence (Q15418 whole entry, species assumed): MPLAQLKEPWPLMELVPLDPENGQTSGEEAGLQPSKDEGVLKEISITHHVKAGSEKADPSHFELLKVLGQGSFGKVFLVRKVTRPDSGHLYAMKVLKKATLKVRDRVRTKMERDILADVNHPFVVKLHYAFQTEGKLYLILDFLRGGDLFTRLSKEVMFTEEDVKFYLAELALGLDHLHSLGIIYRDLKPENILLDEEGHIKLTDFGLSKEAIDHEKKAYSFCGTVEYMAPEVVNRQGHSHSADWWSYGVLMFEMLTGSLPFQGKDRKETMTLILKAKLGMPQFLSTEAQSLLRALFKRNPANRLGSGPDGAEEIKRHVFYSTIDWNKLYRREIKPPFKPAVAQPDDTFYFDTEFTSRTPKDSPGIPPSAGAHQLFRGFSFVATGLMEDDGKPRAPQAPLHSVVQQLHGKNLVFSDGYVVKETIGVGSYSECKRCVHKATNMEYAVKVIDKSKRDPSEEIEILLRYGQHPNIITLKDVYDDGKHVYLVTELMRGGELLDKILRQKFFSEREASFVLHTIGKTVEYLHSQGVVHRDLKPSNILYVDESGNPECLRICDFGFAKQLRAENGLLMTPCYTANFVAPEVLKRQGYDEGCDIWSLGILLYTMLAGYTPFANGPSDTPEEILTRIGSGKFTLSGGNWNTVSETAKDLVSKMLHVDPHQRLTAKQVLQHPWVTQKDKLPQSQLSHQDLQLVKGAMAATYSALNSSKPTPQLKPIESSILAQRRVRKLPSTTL
IKKe, sequence (Q14164 whole entry, species assumed): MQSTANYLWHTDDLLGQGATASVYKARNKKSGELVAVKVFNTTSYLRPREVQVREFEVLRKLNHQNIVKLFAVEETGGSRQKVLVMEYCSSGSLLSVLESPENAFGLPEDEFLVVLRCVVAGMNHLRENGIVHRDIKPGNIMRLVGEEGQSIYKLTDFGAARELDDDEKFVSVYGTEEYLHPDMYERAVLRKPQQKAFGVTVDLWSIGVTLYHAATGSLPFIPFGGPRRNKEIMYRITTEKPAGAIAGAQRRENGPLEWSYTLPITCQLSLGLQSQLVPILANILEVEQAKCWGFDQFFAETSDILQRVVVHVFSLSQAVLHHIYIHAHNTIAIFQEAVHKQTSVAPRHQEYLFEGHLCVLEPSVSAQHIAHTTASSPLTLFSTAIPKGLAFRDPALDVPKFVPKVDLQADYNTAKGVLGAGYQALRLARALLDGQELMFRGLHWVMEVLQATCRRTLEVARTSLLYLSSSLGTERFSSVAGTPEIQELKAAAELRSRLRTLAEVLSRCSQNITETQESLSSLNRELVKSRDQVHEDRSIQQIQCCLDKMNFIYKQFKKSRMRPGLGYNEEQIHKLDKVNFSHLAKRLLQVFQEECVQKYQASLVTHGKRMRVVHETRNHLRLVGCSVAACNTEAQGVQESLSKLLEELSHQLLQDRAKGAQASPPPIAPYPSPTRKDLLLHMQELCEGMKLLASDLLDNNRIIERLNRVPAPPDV
MARK3, sequence (P27448 whole entry, species assumed): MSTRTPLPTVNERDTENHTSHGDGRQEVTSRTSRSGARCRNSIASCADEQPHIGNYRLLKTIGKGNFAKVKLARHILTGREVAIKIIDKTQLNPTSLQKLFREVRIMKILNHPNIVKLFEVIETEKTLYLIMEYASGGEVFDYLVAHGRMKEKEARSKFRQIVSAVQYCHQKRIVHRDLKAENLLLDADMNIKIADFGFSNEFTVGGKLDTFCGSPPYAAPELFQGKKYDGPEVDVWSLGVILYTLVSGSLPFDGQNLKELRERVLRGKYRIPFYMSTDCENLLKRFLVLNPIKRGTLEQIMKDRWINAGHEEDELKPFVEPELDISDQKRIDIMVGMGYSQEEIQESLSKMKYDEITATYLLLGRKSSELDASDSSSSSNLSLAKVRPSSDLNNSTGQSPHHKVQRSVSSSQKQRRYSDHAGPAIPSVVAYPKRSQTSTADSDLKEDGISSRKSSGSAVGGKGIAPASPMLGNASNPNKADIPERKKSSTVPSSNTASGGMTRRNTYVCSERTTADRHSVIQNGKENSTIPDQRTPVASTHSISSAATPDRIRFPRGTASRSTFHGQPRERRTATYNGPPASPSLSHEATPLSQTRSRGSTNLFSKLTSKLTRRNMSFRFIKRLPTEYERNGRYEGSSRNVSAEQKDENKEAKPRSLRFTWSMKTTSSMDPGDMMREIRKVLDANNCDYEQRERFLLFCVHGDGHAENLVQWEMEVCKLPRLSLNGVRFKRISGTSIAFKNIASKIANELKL
TTK, sequence (P33981 whole entry, species assumed): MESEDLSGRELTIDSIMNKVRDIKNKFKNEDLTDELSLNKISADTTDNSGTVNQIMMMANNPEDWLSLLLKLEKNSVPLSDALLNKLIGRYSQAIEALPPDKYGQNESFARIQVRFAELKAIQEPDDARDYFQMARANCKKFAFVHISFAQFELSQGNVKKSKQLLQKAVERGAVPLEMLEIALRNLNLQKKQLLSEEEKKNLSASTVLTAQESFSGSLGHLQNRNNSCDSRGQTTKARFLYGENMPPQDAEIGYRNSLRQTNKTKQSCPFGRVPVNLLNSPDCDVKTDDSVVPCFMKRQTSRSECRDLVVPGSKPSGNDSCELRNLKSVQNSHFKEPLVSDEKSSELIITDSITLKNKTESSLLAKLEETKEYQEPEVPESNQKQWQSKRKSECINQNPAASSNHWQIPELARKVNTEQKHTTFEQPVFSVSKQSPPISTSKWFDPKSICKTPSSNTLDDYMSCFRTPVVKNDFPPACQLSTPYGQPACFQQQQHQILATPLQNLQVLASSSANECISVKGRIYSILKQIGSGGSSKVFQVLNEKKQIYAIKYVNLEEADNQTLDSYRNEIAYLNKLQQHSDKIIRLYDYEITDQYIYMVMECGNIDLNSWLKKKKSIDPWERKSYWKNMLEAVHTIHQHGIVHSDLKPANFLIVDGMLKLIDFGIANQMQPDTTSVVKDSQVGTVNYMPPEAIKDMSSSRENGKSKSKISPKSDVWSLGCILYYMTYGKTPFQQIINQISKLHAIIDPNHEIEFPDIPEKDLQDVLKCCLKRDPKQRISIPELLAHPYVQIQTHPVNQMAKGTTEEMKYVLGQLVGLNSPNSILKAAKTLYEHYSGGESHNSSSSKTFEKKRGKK
SGK1, sequence (O00141 whole entry, species assumed): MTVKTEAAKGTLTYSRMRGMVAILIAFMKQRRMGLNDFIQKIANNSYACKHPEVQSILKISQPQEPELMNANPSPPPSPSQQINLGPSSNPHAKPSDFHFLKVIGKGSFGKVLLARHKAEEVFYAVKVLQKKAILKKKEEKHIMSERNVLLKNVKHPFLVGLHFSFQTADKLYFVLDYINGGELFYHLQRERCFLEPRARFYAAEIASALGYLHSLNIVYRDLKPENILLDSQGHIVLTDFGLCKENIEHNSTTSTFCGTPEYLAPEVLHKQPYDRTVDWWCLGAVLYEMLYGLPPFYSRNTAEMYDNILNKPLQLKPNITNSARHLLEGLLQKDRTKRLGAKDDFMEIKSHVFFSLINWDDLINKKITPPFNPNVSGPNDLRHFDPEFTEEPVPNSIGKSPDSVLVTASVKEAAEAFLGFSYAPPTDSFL

Compound | percentage inhibition of TTK (TTK) [percentage] | percentage inhibition of MARK3 (MARK3) [percentage] | percentage inhibition of RSK1 (RSK1) [percentage] | percentage inhibition of NEK6 (NEK6) [percentage] | percentage inhibition of IKKe (IKKe) [percentage] | percentage inhibition of PKCa (PKCa) [percentage] | percentage inhibition of AuroraB (AuroraB) [percentage] | percentage inhibition of SGK1 (SGK1) [percentage]
c1cc2[nH]nc3c2c(n1)N(C1CCC1)CCC3 [Example 22, 6-cyclobutyl-6,7,8,9-tetrahydro-2H-1,2,5,6-tetraazabenzo[cd]azulene] | 0 | 1 | 0 | 3 | 0 | 0 | 23 | 13
c1cc2[nH]nc3c2c(n1)N(C1CCCC1)CCC3 [Example 23, 6-cyclopentyl-6,7,8,9-tetrahydro-2H-1,2,5,6-tetraazabenzo[cd]azulene] | 0 | 0 | 0 | 1 | 0 | 0 | 1 | 0
c1cc2[nH]nc3c2c(n1)N(C1CCOCC1)CCC3 [Example 29, 6-(tetrahydro-2H-pyran-4-yl)-6,7,8,9-tetrahydro-2H-1,2,5,6-tetraazabenzo[cd]azulene] | 2 | 13 | 10 | 1 | 9 | 11 | 29 | 18
CN1CCC(N2Cc3ccccc3-c3n[nH]c4ccnc2c34)CC1 [Example 55] | 35 | 47 | 41 | 0 | 5 | 0 | 38 | 10
CC(C)n1ncc2c1CN(C1CCN(C)CC1)c1nccc3[nH]nc-2c13 [Example 68] | 2 | 43 | 69 | 0 | 0 | 2 | 19 | 23
